Assay results: ChEMBL document CHEMBL1130997, “A 3D-QSAR study on ginkgolides and their analogues with comparative molecular field analysis” (Bioorg Med Chem Lett, 1998)

biological target: T1, Platelet-activating factor receptor (Homo sapiens, UniProt P25105); experiment: Compound was evaluated for anti-platelet activating factor potency
T1 sequence (P25105 whole entry): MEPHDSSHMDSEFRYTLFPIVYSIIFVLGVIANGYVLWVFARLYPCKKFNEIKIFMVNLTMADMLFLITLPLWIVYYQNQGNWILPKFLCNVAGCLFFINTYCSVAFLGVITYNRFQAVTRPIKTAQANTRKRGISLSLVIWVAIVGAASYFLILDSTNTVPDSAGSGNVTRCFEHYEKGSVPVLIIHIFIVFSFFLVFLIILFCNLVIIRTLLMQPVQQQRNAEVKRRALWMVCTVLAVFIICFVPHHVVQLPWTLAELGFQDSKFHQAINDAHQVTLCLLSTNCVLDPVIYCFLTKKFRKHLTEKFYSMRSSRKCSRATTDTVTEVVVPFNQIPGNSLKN

`C[C@@H]1C(=O)O[C@H]2[C@H](OCOCc3ccccc3)C34[C@H]5C[C@@H](C(C)(C)C)[C@]36[C@@H](OC(=O)[C@@H]6O)O[C@@]4(C(=O)O5)[C@@]12O` (stereo partly drawn) and `CC1C(=O)O[C@H]2[C@H](O)C34[C@H]5C[C@@H](C(C)(C)C)[C@]36[C@@H](OC(=O)[C@@H]6OCOCc3ccccc3)O[C@@]4(C(=O)O5)[C@@]12O` (stereo partly drawn) are within 1.5-fold of each other in IC50: 58.8 nM for the first, 40.4 nM for the second.

Going from `C[C@@H]1C(=O)O[C@H]2[C@H](OCc3ccc(Cl)cc3)C34[C@H]5C[C@@H](C(C)(C)C)[C@]36[C@@H](OC(=O)[C@@H]6O)O[C@@]4(C(=O)O5)[C@@]12O` (stereo partly drawn) to `C[C@@H]1C(=O)O[C@H]2[C@H](O)[C@@]34[C@H]5C[C@@H](C(C)(C)C)[C@]36[C@@H](OC(=O)[C@@H]6O)O[C@@]4(C(=O)O5)[C@@]12O` [GINKOLIDE B], the IC50 rises from 28.9 nM to 128 nM (4.4-fold).

biological target: T1, Platelet-activating factor receptor; experiment: Binding affinity against platelet activating factor

First: CC(=O)O[C@@H]1C(=O)O[C@H]2O[C@@]34CCCC35[C@@H](C[C@@H](C(C)(C)C)C215)OC4=O (stereo partly drawn)
Second: COCO[C@@H]1C(=O)O[C@H]2O[C@@]34CCCC35[C@@H](C[C@@H](C(C)(C)C)[C@@]215)OC4=O (stereo partly drawn)
The Binding affinity of the first is 1.9-fold lower: 11 µM for the first, 21 µM for the second.

Compared with `CC(C)(C)[C@@H]1C[C@H]2OC(=O)[C@]34CC=CC23[C@]12CC(=O)O[C@H]2O4` (stereo partly drawn), `CO[C@H]1C[C@@]23[C@@H](O1)O[C@@]14CC=CC21[C@@H](C[C@H]3C(C)(C)C)OC4=O` (stereo partly drawn) is 1.5-fold higher in Binding affinity: 80 µM for the first, 120 µM for the second.

Going from `COCO[C@@H]1C(=O)O[C@H]2O[C@@]34C[C@@H](Br)[C@H](OCOC)C35[C@@H](C[C@@H](C(C)(C)C)C215)OC4=O` (stereo partly drawn) to `COCO[C@@H]1C(=O)OCC12C13[C@H]4C[C@@]2(C(C)(C)C)O[C@]1(C[C@@H](Cl)[C@@H]3OCOC)C(=O)O4` (stereo partly drawn), the Binding affinity falls from 0.6 µM to 0.3 µM (2-fold).

Going from `C[C@@H]1C(=O)O[C@H]2CC34[C@H]5C[C@@H](C(C)(C)C)C36[C@@H](OC(=O)[C@@H]6O)O[C@@]4(C(=O)O5)[C@]21O` (stereo partly drawn) to `C[C@@H]1C(=O)O[C@H]2CC34[C@@H]5OC(=O)[C@]3(O[C@@H]3OC(=O)[C@H](O)C34[C@H](C(C)(C)C)[C@H]5O)[C@]21O` (stereo partly drawn), the Binding affinity rises from 17.8 µM to 130 µM (7.3-fold).

Compared with `C[C@@H]1C(=O)O[C@H]2[C@H](O)C34[C@@H]5OC(=O)[C@]3(O[C@@H]3OC(=O)[C@H](O)C34[C@H](C(C)(C)C)[C@H]5O)[C@@]12O` (stereo partly drawn), `C[C@@H]1C(=O)O[C@H]2[C@H](O)[C@@]34[C@H]5C[C@@H](C(C)(C)C)[C@]36[C@@H](OC(=O)[C@@H]6O)O[C@@]4(C(=O)O5)[C@@]12O` [GINKOLIDE B] is 28-fold lower in Binding affinity: 17 µM for the first, 0.6 µM for the second.

Compared with `C[C@@H]1C(=O)O[C@H]2[C@H](O)C34[C@H]5C[C@H]6C(C)(C)C[C@@]7(O)C(=O)O[C@@H](O[C@@]3(C(=O)O5)[C@@]12O)C647` (stereo partly drawn), `CC1(C)C[C@@]2(O)C(=O)O[C@H]3O[C@@]45CCCC46[C@@H](C[C@@H]1C362)OC5=O` (stereo partly drawn) is 13-fold higher in Binding affinity: 0.7 µM for the first, 9.2 µM for the second.

Going from `CC(C)(C)[C@@H]1C[C@H]2OC(=O)[C@@]34CC5OC6C[C@@]1([C@@H](O6)O3)[C@@]24C5Br` (stereo partly drawn) to `CC(C)(C)[C@@H]1C[C@H]2OC(=O)[C@]34C[C@@H](Cl)[C@H](Cl)C23[C@@]12[C@@H](OC(=O)[C@@H]2O)O4` (stereo partly drawn), the Binding affinity falls from 2.9 µM to 1.3 µM (2.2-fold).

Compared with `CC(C)(C)[C@@]12C[C@H]3OC(=O)[C@@]4(C[C@@H](Cl)[C@H](Cl)C34C13COC(=O)[C@H]3O)O2` (stereo partly drawn), `CC(C)(C)[C@]12C[C@H]3OC(=O)[C@@]4(C[C@@H](Cl)[C@H](Cl)C34[C@@]13COC(=O)[C@@H]3O)O2` is 35-fold higher in Binding affinity: 1.1 µM for the first, 38 µM for the second.

`CC(=O)O[C@H]1C(=O)OC[C@@]12C13CCC[C@]14O[C@@]2(C(C)(C)C)C[C@H]3OC4=O` and `COCO[C@H]1C(=O)OC[C@@]12C13CCC[C@]14O[C@@]2(C(C)(C)C)C[C@H]3OC4=O` are within 1.5-fold of each other in Binding affinity: 13 µM for the first, 9.4 µM for the second.

Compared with `CC(C)(C)[C@@]12C[C@H]3OC(=O)[C@@]4(CCCC34C13COC(=O)C3=O)O2` (stereo partly drawn), `CC(C)(C)[C@]12C[C@H]3OC(=O)[C@@]4(CCCC34[C@@]13COC(=O)[C@@H]3O)O2` is 4.2-fold higher in Binding affinity: 18 µM for the first, 76 µM for the second.

Compared with `COCO[C@@H]1C(=O)OCC12C13[C@H]4C[C@@]2(C(C)(C)C)O[C@]1(C[C@@H](Cl)[C@@H]3Cl)C(=O)O4` (stereo partly drawn), `CC(C)(C)[C@@]12C[C@H]3OC(=O)[C@@]4(C[C@@H](Cl)CC34C13COC(=O)[C@H]3O)O2` (stereo partly drawn) is 3.7-fold higher in Binding affinity: 0.3 µM for the first, 1.1 µM for the second.

First: C[C@@H]1C(=O)O[C@H]2CC34[C@H]5C[C@@H](C(C)(C)C)C36C(=O)C(=O)O[C@H]6O[C@@]4(C(=O)O5)[C@]21O (stereo partly drawn)
Second: CC(C)(C)[C@@]12C[C@H]3OC(=O)[C@@]4(CCCC34C13COC(=O)[C@H]3O)O2 (stereo partly drawn)
The Binding affinity of the first is 3.3-fold lower: 3.9 µM for the first, 13 µM for the second.
